{"source": "ChEMBL document CHEMBL6178016", "about": "“Design, Synthesis, and Biological Evaluation of New PDE4 Inhibitors for the Treatment of Pressure Ulcers” (J Med Chem, 2025)", "key": {"[1]": {"assay": "Oral bioavailability in Sprague-Dawley rat at 10 mg/kg", "type": "ADME, organism-based", "conditions": "in vivo"}, "[2]": {"assay": "Acute toxicity in female Kunming mouse assessed as effect on pathological changes in kidney at 500 to 4000 mg/kg measured after 14 days by H and E staining based analysis", "type": "organism-based", "conditions": "in vivo, 336 h, dose 500-4000 mg/kg, time 14 day"}, "[3]": {"assay": "AUC (0 to t) in Sprague-Dawley rat at 10 mg/kg, po", "type": "ADME, organism-based", "conditions": "in vivo"}, "[4]": {"target": "T1, 3',5'-cyclic-AMP phosphodiesterase 4D (Homo sapiens, UniProt Q08499)", "T1 sequence (Q08499 whole entry)": "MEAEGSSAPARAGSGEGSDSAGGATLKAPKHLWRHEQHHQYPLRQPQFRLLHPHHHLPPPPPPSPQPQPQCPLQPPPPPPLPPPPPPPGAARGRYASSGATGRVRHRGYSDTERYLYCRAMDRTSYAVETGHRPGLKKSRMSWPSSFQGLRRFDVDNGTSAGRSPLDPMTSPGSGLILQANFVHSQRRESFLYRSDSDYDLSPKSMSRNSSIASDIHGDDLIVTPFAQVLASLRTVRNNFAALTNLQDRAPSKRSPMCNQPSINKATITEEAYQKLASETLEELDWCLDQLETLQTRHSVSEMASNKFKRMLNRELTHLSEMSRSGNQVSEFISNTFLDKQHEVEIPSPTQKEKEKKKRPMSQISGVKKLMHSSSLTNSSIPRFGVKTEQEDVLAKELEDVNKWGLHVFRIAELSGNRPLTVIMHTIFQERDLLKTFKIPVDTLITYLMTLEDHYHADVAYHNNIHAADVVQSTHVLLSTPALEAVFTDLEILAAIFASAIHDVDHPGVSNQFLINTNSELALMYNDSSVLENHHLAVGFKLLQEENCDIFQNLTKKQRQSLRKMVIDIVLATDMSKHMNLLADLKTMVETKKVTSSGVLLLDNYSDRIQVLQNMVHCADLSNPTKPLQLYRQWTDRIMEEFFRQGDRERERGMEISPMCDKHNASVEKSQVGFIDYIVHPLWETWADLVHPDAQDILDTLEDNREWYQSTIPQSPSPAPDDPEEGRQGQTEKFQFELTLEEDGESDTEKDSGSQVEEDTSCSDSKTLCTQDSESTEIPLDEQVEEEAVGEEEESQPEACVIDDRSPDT", "assay": "Inhibition of PDE4D (unknown origin) at 1 uM relative to control"}, "[5]": {"target": "Dual specificity calcium/calmodulin-dependent 3',5'-cyclic nucleotide phosphodiesterase 1A (Homo sapiens, UniProt P54750)", "sequence (P54750 whole entry)": "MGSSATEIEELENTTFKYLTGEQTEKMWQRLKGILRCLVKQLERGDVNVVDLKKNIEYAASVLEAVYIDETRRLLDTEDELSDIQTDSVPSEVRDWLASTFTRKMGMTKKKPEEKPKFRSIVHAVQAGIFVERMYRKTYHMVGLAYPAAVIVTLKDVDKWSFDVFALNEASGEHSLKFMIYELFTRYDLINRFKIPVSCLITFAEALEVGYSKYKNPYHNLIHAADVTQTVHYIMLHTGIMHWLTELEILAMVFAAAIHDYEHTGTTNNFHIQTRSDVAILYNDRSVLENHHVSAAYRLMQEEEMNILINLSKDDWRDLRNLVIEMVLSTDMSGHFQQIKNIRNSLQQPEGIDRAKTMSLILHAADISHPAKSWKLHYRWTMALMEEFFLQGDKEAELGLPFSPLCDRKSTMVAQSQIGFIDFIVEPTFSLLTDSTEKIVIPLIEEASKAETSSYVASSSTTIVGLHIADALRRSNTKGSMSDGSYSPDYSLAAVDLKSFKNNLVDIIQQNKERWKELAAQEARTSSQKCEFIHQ", "assay": "Inhibition of PDE1A (unknown origin)"}, "Rattus norvegicus [6]": {"tested_on": "Rattus norvegicus", "assay": "Antiinflammatory activity against male Sprague-Dawley rat pressure ulcer model assessed as reduction in TNF-alpha mRNA expression in skin at 1.25% administered as ointment by qRT-PCR analysis", "type": "functional, organism-based"}, "RAW264.7 [7]": {"tested_on": "RAW264.7", "assay": "Antiinflammatory activity against LPS induced mouse RAW264.7 cells assessed as increase in CREB phosphorylation expression at 5 to 20 uM by Western blot analysis", "type": "functional, cell-based", "conditions": "dose 5-20 µM"}, "[8]": {"assay": "Acute toxicity in male Kunming mouse assessed as effect on pathological changes in liver at 500 to 4000 mg/kg measured after 14 days by H and E staining based analysis", "type": "organism-based", "conditions": "in vivo, 336 h, dose 500-4000 mg/kg, time 14 day"}, "RAW264.7 [9]": {"tested_on": "RAW264.7", "assay": "Antiinflammatory activity against mouse RAW264.7 cells assessed as increase in cAMP expression at 5 to 20 uM by […] analysis", "type": "functional, cell-based", "conditions": "dose 5-20 µM"}, "RAW264.7 [10]": {"tested_on": "RAW264.7", "assay": "Antiinflammatory activity against mouse RAW264.7 cells assessed as inhibition of LPS-induced TNF-alpha release preincubated for 2 hrs followed by LPS stimulation and measured after 4 hrs by RT-PCR analysis", "type": "functional, cell-based"}, "Rattus norvegicus [11]": {"tested_on": "Rattus norvegicus", "assay": "Antiinflammatory activity against male Sprague-Dawley rat pressure ulcer model assessed as decrease in inflammatory cells in dermis at 0.625 to 2.5% administered as ointment by Masson staining based analysis", "type": "functional, organism-based"}, "[12]": {"target": "Voltage-gated inwardly rectifying potassium channel KCNH2 (Homo sapiens, UniProt Q12809)", "sequence (Q12809 whole entry)": "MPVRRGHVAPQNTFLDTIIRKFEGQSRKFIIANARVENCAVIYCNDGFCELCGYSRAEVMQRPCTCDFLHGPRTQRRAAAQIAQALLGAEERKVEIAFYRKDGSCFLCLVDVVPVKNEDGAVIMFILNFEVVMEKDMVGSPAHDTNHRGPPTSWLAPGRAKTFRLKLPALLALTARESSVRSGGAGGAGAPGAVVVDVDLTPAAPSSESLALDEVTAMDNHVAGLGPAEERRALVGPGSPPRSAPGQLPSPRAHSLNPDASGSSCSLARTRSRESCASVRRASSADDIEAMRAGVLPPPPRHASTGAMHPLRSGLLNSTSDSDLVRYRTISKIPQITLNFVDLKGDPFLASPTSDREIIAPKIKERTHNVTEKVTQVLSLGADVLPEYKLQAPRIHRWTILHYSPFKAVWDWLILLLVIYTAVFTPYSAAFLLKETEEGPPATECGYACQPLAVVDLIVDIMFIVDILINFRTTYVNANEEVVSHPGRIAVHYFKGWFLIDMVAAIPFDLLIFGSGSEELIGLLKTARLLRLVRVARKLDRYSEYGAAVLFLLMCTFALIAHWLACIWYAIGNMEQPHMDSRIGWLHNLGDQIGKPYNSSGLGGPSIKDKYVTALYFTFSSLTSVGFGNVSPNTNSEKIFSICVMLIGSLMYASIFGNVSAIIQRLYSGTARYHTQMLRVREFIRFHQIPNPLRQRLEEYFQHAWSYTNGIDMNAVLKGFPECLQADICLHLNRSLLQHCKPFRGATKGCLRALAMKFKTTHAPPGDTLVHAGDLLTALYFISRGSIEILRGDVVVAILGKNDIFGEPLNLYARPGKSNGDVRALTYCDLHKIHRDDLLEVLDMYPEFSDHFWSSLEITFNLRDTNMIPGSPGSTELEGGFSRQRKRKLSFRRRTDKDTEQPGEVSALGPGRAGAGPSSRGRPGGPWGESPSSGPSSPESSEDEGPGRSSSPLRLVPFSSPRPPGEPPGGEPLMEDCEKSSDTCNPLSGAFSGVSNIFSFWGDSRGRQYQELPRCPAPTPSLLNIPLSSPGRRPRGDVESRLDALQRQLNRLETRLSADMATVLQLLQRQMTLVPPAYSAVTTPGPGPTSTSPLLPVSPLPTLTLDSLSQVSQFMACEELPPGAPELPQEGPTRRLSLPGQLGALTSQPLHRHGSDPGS", "assay": "Inhibition of human ERG stably expressed in HEK293 cells by manual membrane clamp technique", "type": "toxicity, cell-based"}, "Rattus norvegicus [13]": {"tested_on": "Rattus norvegicus", "assay": "Antiinflammatory activity against male Sprague-Dawley rat pressure ulcer model assessed as decrease in inflammatory cells in dermis at 0.625 to 2.5% administered as ointment by H and E staining based analysis", "type": "functional, organism-based"}, "Rattus norvegicus [14]": {"tested_on": "Rattus norvegicus", "assay": "Antiinflammatory activity against male Sprague-Dawley rat pressure ulcer model assessed as appearance of orderly arranged cells at 0.625 to 2.5% administered as ointment by Masson staining based analysis", "type": "functional, organism-based"}, "Rattus norvegicus [15]": {"organism": "Rattus norvegicus", "assay": "Antiinflammatory activity against male Sprague-Dawley rat pressure ulcer model assessed as increase in CREB phosphorylation expression by immunohistochemical staining based analysis", "type": "functional, organism-based"}, "[16]": {"assay": "AUC (0 to infinity) in Sprague-Dawley rat at 5 mg/kg, iv", "type": "ADME, organism-based", "conditions": "in vivo"}, "[17]": {"target": "T1, 3',5'-cyclic-AMP phosphodiesterase 4D", "assay": "Inhibition of PDE4D (unknown origin)"}, "[18]": {"assay": "Half life in Sprague-Dawley rat at 5 mg/kg, iv", "type": "ADME, organism-based", "conditions": "in vivo"}, "[19]": {"assay": "Acute toxicity in male Kunming mouse assessed as effect on pathological changes in lung at 500 to 4000 mg/kg measured after 14 days by H and E staining based analysis", "type": "organism-based", "conditions": "in vivo, 336 h, dose 500-4000 mg/kg, time 14 day"}, "[20]": {"target": "Dual 3',5'-cyclic-AMP and -GMP phosphodiesterase 11A (Homo sapiens, UniProt Q9HCR9)", "sequence (Q9HCR9 whole entry)": "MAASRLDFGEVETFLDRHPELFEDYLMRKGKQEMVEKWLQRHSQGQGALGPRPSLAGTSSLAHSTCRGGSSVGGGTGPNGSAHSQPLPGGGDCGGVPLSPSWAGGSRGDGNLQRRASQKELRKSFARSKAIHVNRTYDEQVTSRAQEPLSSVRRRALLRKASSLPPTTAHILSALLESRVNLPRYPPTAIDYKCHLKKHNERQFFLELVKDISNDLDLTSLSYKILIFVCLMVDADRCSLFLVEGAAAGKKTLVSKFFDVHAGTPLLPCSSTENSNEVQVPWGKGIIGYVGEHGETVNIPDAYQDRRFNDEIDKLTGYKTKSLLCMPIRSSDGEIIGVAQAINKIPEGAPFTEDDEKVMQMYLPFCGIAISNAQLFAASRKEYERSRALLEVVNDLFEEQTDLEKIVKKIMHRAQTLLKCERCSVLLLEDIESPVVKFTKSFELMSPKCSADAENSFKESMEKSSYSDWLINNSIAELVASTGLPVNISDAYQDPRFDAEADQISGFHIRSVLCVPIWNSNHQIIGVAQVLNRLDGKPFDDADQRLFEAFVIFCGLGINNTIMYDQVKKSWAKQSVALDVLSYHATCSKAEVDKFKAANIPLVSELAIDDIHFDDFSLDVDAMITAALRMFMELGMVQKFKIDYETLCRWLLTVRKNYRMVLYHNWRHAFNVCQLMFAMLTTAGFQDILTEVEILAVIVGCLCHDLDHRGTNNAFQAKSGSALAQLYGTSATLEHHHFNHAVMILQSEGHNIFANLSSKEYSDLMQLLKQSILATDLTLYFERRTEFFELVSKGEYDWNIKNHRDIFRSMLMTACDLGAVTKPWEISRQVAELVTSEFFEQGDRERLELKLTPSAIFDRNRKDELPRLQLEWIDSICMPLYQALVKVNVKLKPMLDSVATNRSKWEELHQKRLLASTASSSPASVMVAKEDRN", "assay": "Inhibition of PDE11A (unknown origin)"}, "[21]": {"assay": "Acute toxicity in male Kunming mouse assessed as effect on pathological changes in heart at 500 to 4000 mg/kg measured after 14 days by H and E staining based analysis", "type": "organism-based", "conditions": "in vivo, 336 h, dose 500-4000 mg/kg, time 14 day"}, "[22]": {"target": "cGMP-specific 3',5'-cyclic phosphodiesterase (Homo sapiens, UniProt O76074)", "assay": "Inhibition of PDE5A (unknown origin)"}, "[23]": {"target": "cGMP-inhibited 3',5'-cyclic phosphodiesterase 3A (Homo sapiens, UniProt Q14432)", "sequence (Q14432 whole entry)": "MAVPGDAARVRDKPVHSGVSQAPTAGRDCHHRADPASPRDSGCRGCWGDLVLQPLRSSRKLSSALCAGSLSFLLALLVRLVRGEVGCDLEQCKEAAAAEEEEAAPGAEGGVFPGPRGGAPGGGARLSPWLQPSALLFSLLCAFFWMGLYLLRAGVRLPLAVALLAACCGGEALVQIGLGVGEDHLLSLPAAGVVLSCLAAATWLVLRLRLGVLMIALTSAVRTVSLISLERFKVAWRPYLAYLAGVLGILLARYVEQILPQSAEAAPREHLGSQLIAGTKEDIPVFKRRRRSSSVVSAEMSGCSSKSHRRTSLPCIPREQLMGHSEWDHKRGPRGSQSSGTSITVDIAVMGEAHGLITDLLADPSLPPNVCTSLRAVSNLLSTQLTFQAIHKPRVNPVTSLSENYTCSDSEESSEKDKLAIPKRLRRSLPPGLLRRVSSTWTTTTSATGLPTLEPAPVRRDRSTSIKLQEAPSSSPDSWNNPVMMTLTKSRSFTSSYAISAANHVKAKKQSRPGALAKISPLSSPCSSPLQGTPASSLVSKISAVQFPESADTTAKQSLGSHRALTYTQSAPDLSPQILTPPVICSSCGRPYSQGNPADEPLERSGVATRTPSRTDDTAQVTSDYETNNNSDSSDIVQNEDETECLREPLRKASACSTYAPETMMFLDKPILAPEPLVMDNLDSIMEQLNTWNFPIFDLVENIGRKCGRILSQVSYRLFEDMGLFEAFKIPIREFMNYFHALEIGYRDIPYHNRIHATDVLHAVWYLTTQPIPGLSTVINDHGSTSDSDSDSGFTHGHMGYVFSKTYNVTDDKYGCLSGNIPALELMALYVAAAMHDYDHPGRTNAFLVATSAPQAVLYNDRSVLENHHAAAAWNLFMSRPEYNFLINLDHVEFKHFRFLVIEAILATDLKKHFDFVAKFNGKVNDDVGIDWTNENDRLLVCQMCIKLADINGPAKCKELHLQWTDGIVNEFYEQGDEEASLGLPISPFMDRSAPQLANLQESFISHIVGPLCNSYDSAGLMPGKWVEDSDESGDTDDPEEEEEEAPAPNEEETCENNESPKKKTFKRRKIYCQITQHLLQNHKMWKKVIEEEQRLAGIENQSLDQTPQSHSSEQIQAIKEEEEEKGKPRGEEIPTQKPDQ", "assay": "Inhibition of PDE3A (unknown origin)"}, "Enterococcus faecium": {"tested_on": "Enterococcus faecium", "assay": "Antibacterial activity against Enterococcus faecium BNCC358275 assessed as reduction in bacterial colonies growth at 512 ug/ml measured after 24 hrs by agar plate method", "type": "functional, organism-based", "conditions": "dose 512.0 µg/ml"}, "Cytochrome P450 2C19": {"target": "Cytochrome P450 2C19 (Homo sapiens, UniProt P33261)", "sequence (P33261 whole entry)": "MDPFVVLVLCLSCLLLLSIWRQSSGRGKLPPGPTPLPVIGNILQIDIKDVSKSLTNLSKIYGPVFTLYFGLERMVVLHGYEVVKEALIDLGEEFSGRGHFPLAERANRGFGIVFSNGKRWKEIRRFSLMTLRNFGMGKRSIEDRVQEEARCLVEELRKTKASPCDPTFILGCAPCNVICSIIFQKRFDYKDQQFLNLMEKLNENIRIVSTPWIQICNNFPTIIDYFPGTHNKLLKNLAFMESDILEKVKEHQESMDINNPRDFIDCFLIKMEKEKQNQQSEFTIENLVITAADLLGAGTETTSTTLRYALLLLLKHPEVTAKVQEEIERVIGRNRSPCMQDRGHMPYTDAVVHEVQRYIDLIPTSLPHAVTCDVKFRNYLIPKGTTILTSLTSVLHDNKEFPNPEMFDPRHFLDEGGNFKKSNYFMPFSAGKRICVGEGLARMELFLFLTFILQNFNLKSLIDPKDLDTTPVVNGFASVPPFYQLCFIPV", "assay": "Inhibition of human CYP2C19", "type": "ADME"}}, "note": "Activity calls are given as the source filed them. The rule behind the calls is not given here.", "data": [{"compound": "Cn1c(=O)c2c(ncn2CCC(=O)NNC(=O)c2cc3nccc(-c4ccc(OC(F)F)c(OCC5CC5)c4)n3n2)n(C)c1=O", "values": [{"measurement": "bioavailability", "setting": "[1]", "result": 5.5, "unit": "%"}, {"measurement": "Activity", "setting": "[2]", "result": "Non-toxic"}, {"measurement": "AUC(0-t)", "setting": "[3]", "result": 25.6, "unit": "ng·h/mL"}, {"measurement": "inhibition", "setting": "[4]", "result": 95.8, "unit": "%"}, {"measurement": "IC50", "setting": "[5]", "result": "> 50", "unit": "µM"}, {"measurement": "Activity", "setting": "Rattus norvegicus [6]", "result": "Active"}, {"measurement": "Activity", "setting": "RAW264.7 [7]", "result": "Active"}, {"measurement": "Activity", "setting": "[8]", "result": "Non-toxic"}, {"measurement": "Activity", "setting": "RAW264.7 [9]", "result": "Active"}, {"measurement": "IC50", "setting": "RAW264.7 [10]", "result": 13.3, "unit": "µM"}, {"measurement": "Activity", "setting": "Rattus norvegicus [11]", "result": "Active"}, {"measurement": "IC50", "setting": "[12]", "result": "> 10", "unit": "µM"}, {"measurement": "Activity", "setting": "Rattus norvegicus [13]", "result": "Active"}, {"measurement": "Activity", "setting": "Rattus norvegicus [14]", "result": "Active"}, {"measurement": "Activity", "setting": "Rattus norvegicus [15]", "result": "Active"}, {"measurement": "AUC(0-inf)", "setting": "[16]", "result": 236, "unit": "ng·h/mL"}, {"measurement": "IC50", "setting": "[17]", "result": 0.029, "unit": "µM"}, {"measurement": "half-life", "setting": "[18]", "result": 16.8, "unit": "min"}, {"measurement": "Activity", "setting": "[19]", "result": "Non-toxic"}, {"measurement": "IC50", "setting": "[20]", "result": "> 50", "unit": "µM"}, {"measurement": "Activity", "setting": "[21]", "result": "Non-toxic"}, {"measurement": "IC50", "setting": "[22]", "result": "> 50", "unit": "µM"}, {"measurement": "IC50", "setting": "[23]", "result": "> 50", "unit": "µM"}, {"measurement": "Activity", "setting": "Enterococcus faecium", "result": "Active"}, {"measurement": "IC50", "setting": "Cytochrome P450 2C19", "result": "> 50", "unit": "µM"}]}]}
